Patent US8178688B2, “Benzamidine derivatives, process for the preparation thereof and pharmaceutical composition comprising the same” (Dong Wha Pharmaceutical Co., Ltd., priority 2004, dated 2012)
Where two headings read alike, the source gives them in different places. Marks after values point to notes of the source that are not given here.

What was measured:
[1] = system: osteoclast differentiation; assay: Inhibitory effects on osteoclast differentiation (co-culture of bone marrow cells with osteoblast, TRAP staining); format: cell-based, mice; details: co-culture of bone marrow cells and osteoblast, 7 days, TRAP-positive osteoclasts versus controls; for inhibition at 1 µM: Mus musculus, Osteoclast, 168 h, read-out: % inhibitory activity on osteoclastogenesis
Summary of the method: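 Percent inhibition versus control is based on microscope counts of TRAP-positive osteoclasts (3 or more nuclei) after 7 days of compound exposure. Cultures paired ddY mouse marrow cells with ICR calvarial osteoblasts, driven by dexamethasone 10^−7M plus vitamin D3 10^−8M, with medium and compound changed every 2–3 days.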

osteoblast = assay: Effect on bone formation (osteoblast nodule mineralization, Alizarin red S); format: cell-based, ICR mice; details: calvarial osteoblast in osteogenic differentiation medium
Method: The osteoblast, treated in this experiment, was prepared from the osteoblast as prepared in the above.
The osteoblast, isolated from sequential enzymatic treatment of calvariae from neonated ICR mice, was cultured in α-MEM medium containing 10% FBS for 4˜5 days. The osteoblast was also cultured for 24 hr after seeding the cells on a 12 well plate (10^5 cell/well), and medium was exchanged with the osteogenic differentiation medium containing 10 mM β-glycerophosphate and 50 μg/ml ascorbic acid.
The test substances at the concentration of 0.1 uM and 0.1 nM were added to the above medium for evaluating the effect promoting bone formation. The differentiation medium containing the test substances was exchanged every 3 or 4 days for 14 to 21 days until confirming the nodule mineralization.
The cell was rinsed twice with distilled water, and fixed by the 10% formalin solutions for 30 minutes. Alizarin red S and Von-kossa Solution were treated on the plate for measuring deposited calcium and phosphate in cell matrix, and the activity of the test substances on the bone formation was analyzed by determining stained area.
Additionally, for the purpose of estimating quantitative Arizarin red S in cell matrix, stained Arizarin red S was extracted by treating 10 mM sodium phosphate solution (pH 7.0), containing 10% cetylpyridinium chloride, for 15˜30 minutes in the shaking incubator, and then the amount of the deposited calcium was estimated by calculating the absorbance of the extracted Arizarin red S at 564 nm. […]

[2] = system: mouse models of ovalbumin-induced asthma; assay: Therapeutic effect in mouse model of asthma induced with ovalbumin (lung weight, total leukocytes in blood and BALF); format: in vivo, C57BL/6 mice
Method: The benzamidine compounds were assated for therapeutic effect on allergic inflammation in mouse models of ovalbumin-induced asthma. Starting on the day of immunization the benzamidine compounds were dosed for 17 consecutive days. The experimental animals were re-exposed to ovalbumin 14 days after the sensitization and then sacrificed 3 days after the re-exposure. Changes in lung weight, cellular components of peripheral blood and bronchoalveolar lavage fluid, and lung histopathology were observed.
A total of 110 female C57BL/6 mice (7-week-old, SLC, Japan) were adapted to a laboratory environment for 6 days before being used in earnest experiments. While being housed at a densirt of five in a plastic cage, the experimental animals were breed in a breeding room with controlled temperature (20-25° C.) and humidity (30-35%). Under light-dark cycles of 12 hours, mice were allowed to have free access to feedstuff and tap water. While asthma was induced in 100 mice by ovalbumin, 10 mice were used as a non-treated group.
200 mg of benzamidine compounds (Methansulfonic acid or Hydrochloride) were completely dissolved in 5 ml of sterilized distilled water. The benzamidine compound in the solutions was orally administered at doses of 200 mg per kg of body weight once a day from the day of the sensitization with ovalbumin. The control group was administered with equal volumes of sterilized distilled water in the same manner.
A solution of 200 μg of ovalbumin (Grade VI; Sigma, st. Louis, Mo., USA) and 180 mg of aluminium hydroxide (Al(OH)3, dried powder gel; Aldrich, Milwaukee, USA) in 4 ml of physiological saline was allowed to stand at 4° C. overnight and was administered to the experimental animals (200 μl, abdominal injection) for sensitization. As for the non-treated group, a solution of only aluminium hydroxide in saline was injected. 15 days after sensitization, a 1.5% ovalbumin solution was sprayed in air using a nebulizer, followed by exposing the experimental animals to the spray for 10 min to induce asthma therein. The non-treated group was exposed only to saline in the same manner. All the experimental animals were sacrificed 3 days after the exposure.
On the final day of experiment, the lungs were separated form adjacent organs. The removed lungs were weight among individual animals, the relative weight of the lungs was calculated as a percentage of body weight using the following Equation 3. Relative weight of Lung(%)=(Absolute lung weight/Body weight)×100 Equation 3
On the final day of experiment, all the experimental animals were etherized and underwent laparotomy to expose the abdominal vena cava, from which 1 ml of blood was the taken. Using a hemocytometer, a blood sample was measured for total leukocyte counts in a ×10^3/1 mm^3 units.
On the final day of experiment, secretions present in bronchi and alveola were examined for cyrological constitution. After veing etherized, the experimental animals were operated to open the cervical region and the thorax. The jugular vein was allowed to bleed, followed by endotracheal intubation. 3 ml of phosphate buffered saline was injected twice through the tube and the thorax was massaged for 30 sec to obtain cell suspension from the lungs. Using a hemocytometer, a […] was measured for total leukocyte counts in a ×10^5/1 ml units.

[3] = system: rat models subjected to rib fracture; assay: Effect of promoting fracture healing in rib fracture-induced rat model (callus volume, callus osteoid volume); format: in vivo, SD rats
Method: The benzamidine compounds were assayed for therapeutic effect on bone fracture in rat models subjected to rib fracture. Benzamidine derivates are dosed from 2 days after operation for 2 weeks, and the changes on the volume and histology of callus were observed.
A total of 54 SD rats (8 weeks old upon receipt, Jung Ang Lab. Animal Co., Korea) were used. While being housed at a density of three to a plastic cage, the experimental animals were kept in a breeding room under controlled temperature (20-25° C.) and humidity (30-35%). Under light-dark cycles of 12 hours, the rats were allowed to have free access to feedstuff and tap water.
200 mg of benzamidine compounds (Methansulfonic acid or Hydrochloride) were completely dissolved in 5 ml of sterilized distilled water. The benzamidine derivatives in the solutions was orally administered at doses of 200 mg per kg of body weight once a day for 2 weeks from day 2 of the surgery.
8th and 9th rib of each animal was exposed by general operation under ketamine HCl and xylazine HCl anesthesia, and the exposed ribs were crossly dissected using surgical scissors. After rib-fracture, surgical wounds were closed with general skin suture.
8th and 9th ribs of each animal were separated at sacrifice and then the long axis and short axis of callus were calculated as mm units. The volume of callus was calculated as following Equation 2. Callus volume(mm^3)=(a×b^2)/2 Equation 2 • a: long diameter of bony callus • b: short diameter of bony callus
The 8th rib including fracture sites of each rat was separated and fixed in 10% neutral buffered formalin, and then decalcified in decalcifying solution (24.4% formic acid, and 0.5N sodium hydroxide) for 5 days (mixed decalcifying solution was exchanges once a day for 5 days). After decalcification, the rib was embedded in paraffin, sectioned (3˜4 μm) and stained with hematoxylin-eosin or Masson's trichrome for composition of callus observation.
Osteloid volume (OV/callus) in callus regions of prepared histological specimens were detected as % levels using automated image analysis (analySIS Image Processing; SIS, Germany) under microscopy.

ovariectomized ddY mouse = assay: Therapeutic effect in the ovariectomized osteoporetic mouse model (trabecular bone volume of the femur); format: in vivo, ddY mice; details: 50 mg/kg/day oral gavage for 4 weeks from 4 weeks after ovariectomy, salts (methansulfonic acid or HCl)
Method: The therapeutic effects of each benzamidine derivates were evaluated on the ovariectomized ddY mouse. Benzamidine derivates were dosed from 4 weeks after operation for 4 weeks and the changes on the trabecular bone volume (TBV) of the femur were observed via histomorphometry.
Female ddY mice (6-wk old upon receipt, SLC, Japan) were used after acclimatization for 7 days. Animals were allocated 5 per polycarbonate cage in a temperature (20-25° C.) and humidity (30-35%) controlled room. Light:dark cycle was 12 hr:12 hr and feed (Samyang, Korea) and water were supplied free to access.
Salts of benzamidine derivates (Methansulfonic acid or HCl) were used for the test substances of this invention. Test substances are dissolved and/or suspended in injectable distilled water and administered at a dosage volume of 10 ml/kg by oral gavage. All test substances are dosed from 4 weeks after operation for 4 weeks at 50 mg/kg/day.
To induce estrogen-deficient osteoporosis, bilateral ovaries are removed and then closed by routine methods. Operation was conduct under Ketamine hydrochloride and xylazine hydrochloride anesthesia.
The left femur of each mouse were separated at sacrifice, and fixed in 10% neutral buffered formalin (NBF), then decalcified in decalcifying solution (24.4% formic acid, and 0.5N sodium hydroxide) for 5 days (mixed decalcifying solution was exchanges once a day for 5 days). After the dexalcification, the femur was embedded in paraffin, sectioned (3˜4 μm) and stained with hematoxylin-eosin stain.
TBV was calculated using automated image analysis (analySIS Image Processing; SIS, Germany) under magnification of ×200 in the uniform area of trochlea epiphyseal regions (growth plate regions were excluded) of prepared histological specimens. TBV was calculated as percentage (%) levels.
The changes of TBV compared to that of vehicle control are calculated as following Equation 1 to help the understanding of the efficacy of test substances. Percentage changes=[((TBV of a−TBV of b)/TBV of b)×100] Equation 1

Compound | inhibition at 1 µM ([1]; 1 μm) [%] | bone forming activity (%) (osteoblast; 0.1 nM) | bone forming activity (%) (osteoblast; 0.1 μM) | melting point [°C] | inhibition at 1 µM ([1]; 1 m) [%] | Changes on the lung weight, Absolute ([2]; 200 mg/kg oral once a day from sensitization, vehicle control 0.134 ± 0.012, sham 0.110 ± 0.009) [g] | Changes on the lung weight, Relative (%) ([2]; 200 mg/kg oral once a day, % of body weight, vehicle control 0.780 ± 0.103, sham 0.694 ± 0.049) | Changes on callus volume (mm^3) ([3]; 200 mg/kg oral once a day for 2 weeks from day 2 of surgery, 8th and 9th ribs, vehicle control 37.22 ± 8.23) | Changes on callus osteoid volume (OV/callus, %) ([3]; 200 mg/kg oral once a day for 2 weeks, 8th rib, vehicle control 35.88 ± 5.06) [%] | % inhibitory activity on osteoclastogenesis [1] [%] | Changes on TBV (% changes vs vehicle control) (ovariectomized ddY mouse) [%]
N=C(NO)c1ccc(OCCCCCOc2ccc(-c3csc(-c4cccnc4)n3)cc2)cc1 [Example 7, N-hydroxy-4-(5-[4-(2-pyridin-3-yl-1,3-thiazol-4-yl)phenoxy]pentoxy)-benzamidine] | 94.5 | 1.24 | 9.61 | 149 to 154 | – | – | – | – | – | – | –
CNc1nc(-c2ccc(OCCCCCOc3ccc(C(=N)NO)cc3)cc2)c(CCCl)s1 [Example 115, N-hydroxy-4-(5-[4-(5-(2-chloroethyl)-2-methylamino-1,3-thiazol-4-yl)phenoxy]pentoxy)-benzamidine] | – | – | – | – | 96 | 0.114 ± 0.009 | 0.705 ± 0.046 | 24.06 ± 9.64* mm^3 | 41.94 ± 6.33 | – | –
CCN(CCN1CCOCC1)c1nc(-c2ccc(OCCCCCOc3ccc(C(=N)NO)cc3)cc2)c(C)s1 [Example 124, N-hydroxy-4-(5-[4-(2-(ethyl-1-(2-morpholinoethyl)-amino)-5-methyl-1,3-thiazol-4-yl)phenoxy]pentoxy)-benzamidine] | – | 6.44 | 12.9 | – | – | – | – | – | – | 87.9 | 72.82
